Experiment [1] deals with CQ-resistant strain of P. falciparum. The arrangement: method as in doi:10.1002/ddr.430300405. The settings on record: in vitro, compound alone; read-out: IC50 antimalaria effect, CQ-resistant strain; cited from earlier work.
The subject of experiment [2] is ERK1/2 phosphorylation through MrgprA3. The experiment in a line: Immunoblot of ERK1/2 phosphorylation in HEK293T cells expressing MrgprA3. Type of experiment: cell-based, mouse. The settings on record: HEK-MrgprA3 cells, 30 μM BBM for 10 min prior to CQ.
Another experiment addresses T1, MrgprA3 (Mus musculus, UniProt Q91WW3).
T1 construct: expressed in transfected cells; host or cells: HEK293T
T1 sequence (Q91WW3 1-302): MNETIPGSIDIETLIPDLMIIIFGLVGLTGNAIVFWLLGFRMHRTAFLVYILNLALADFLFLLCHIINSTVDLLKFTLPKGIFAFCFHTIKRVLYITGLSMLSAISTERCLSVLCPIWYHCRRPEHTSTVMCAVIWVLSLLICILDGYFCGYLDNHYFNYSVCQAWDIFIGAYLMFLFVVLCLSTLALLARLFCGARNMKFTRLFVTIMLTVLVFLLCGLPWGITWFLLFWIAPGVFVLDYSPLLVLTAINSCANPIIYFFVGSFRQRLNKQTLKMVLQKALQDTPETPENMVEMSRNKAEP
The experiment in a line: Intracellular calcium measurement in HEK293T cells expressing mouse MrgprA3. The format is cell-based. The settings on record: pretreated 10 min prior to 300 μM CQ; read-out: IC50 of inhibition of CQ-induced MrgprA3 activation. As for the experimental part:
MRGPRA3 and MRGPRC11 are mouse orthologs of human MRGPRX1, and MrgprA3 is also activated by CQ, resulting in CQ-induced pruritus. To investigate the inhibitory effect of berbamine on MrgprA3, we established HEK293T cells overexpressing MrgprA3. […] We further investigated whether berbamine inhibited CQ-induced ERK1/2 phosphorylation in HEK-MrgprA3 cells. Strong and significant ERK1/2 phosphorylation was observed following CQ application, and ERK1/2 phosphorylation peaked 5 min after CQ treatment (Figure 6A,B).
Figure 5 Effect of berbamine on CQ-induced activation of MrgprA3: (A) Intracellular calcium levels were measured in HEK293T cells expressing mouse MrgprA3. Cells were treated with indicated concentrations of CQ. (B) Summary of dose–response (mean ± S.E., n = 6). (C) Cells were pretreated with indicated concentrations of berbamine for 10 min prior to 300 μM CQ treatment. (D) Summary of dose-response (mean ± S.E., n = 6). (E) Representative traces of intracellular calcium responses to BAM8−22 in HEK293T cells expressing MrgprC11. […]
Intracellular calcium levels were measured using a Fluo-4 NW calcium assay kit (Invitrogen, Carlsbad, CA) as per the manufacturer’s protocol in HEK293T and HT29 cells. […] After 1 h of incubation, Fluo-4 fluorescence was recorded with a FLUOstar Omega microplate reader equipped with syringe pumps and custom Fluo-4 excitation/emission filters (485/538 nm). […]

Another experiment has as its target T2, MrgprX4 (Homo sapiens, UniProt Q96LA9).
T2 construct: expressed in transfected cells; host or cells: HEK293T
As to the kind of experiment: DCA-induced activation of MrgprX4 in MrgprX4-expressing HEK293T cells (calcium). The note with it: 30 μM, 10 min prior to 80 μM DCA. The format is cell-based. On the procedure:
To investigate the effect of berbamine on other pruritogenic GPCRs, we observed the effect of berbamine on histamine H1 receptor (H1R), histamine H4 receptor (H4R), MrgprC11, MrgprX4, PAR2, and TGR5.
Figure 3 Effects of berbamine on the activity of other pruritogenic GPCRs: (A,B) Effect of berbamine on histamine 1 receptor (H1R) and histamine 4 receptor (H4R). H1R- and H4R-expressing HEK293T cells were pretreated with 30 μM BBM for 10 min prior to 100 μM histamine treatment. […] (C) Effect of berbamine on PAR2. HT29 cells were pretreated with BBM for 10 min prior to 30 μM PAR2-AP treatment. […] (D) Effect of berbamine on MrgprC11. MrgprC11-expressing HEK293T cells were pretreated with BBM for 10 min prior to 100 μM […] treatment. (E) Effect of berbamine on MrgprX4. MrgprX4-expressing HEK293T cells were pretreated with BBM for 10 min prior to 80 μM DCA treatment. (F) Effect of berbamine on TGR5. TGR5 activity was measured using a YFP fluorescence quenching assay. CHO-K1 cells coexpressing TGR5 and a halide sensor YFP were pretreated with BBM and 80 μM DCA for 10 min prior to I^- treatment. Results were summarized as means ± S.E. (n = 6). NTC, nontransfected cells.
Intracellular calcium levels were measured using a Fluo-4 NW calcium assay kit (Invitrogen, Carlsbad, CA) as per the manufacturer’s protocol in HEK293T and HT29 cells. […]

Experiment [3] concerns CQ-sensitive strain of P. falciparum. The arrangement: method as in doi:10.1002/ddr.430300405. The settings on record: in vitro; read-out: IC50 antimalaria effect, CQ-sensitive strain; cited from earlier work.

T2 sequence (Q96LA9 whole entry): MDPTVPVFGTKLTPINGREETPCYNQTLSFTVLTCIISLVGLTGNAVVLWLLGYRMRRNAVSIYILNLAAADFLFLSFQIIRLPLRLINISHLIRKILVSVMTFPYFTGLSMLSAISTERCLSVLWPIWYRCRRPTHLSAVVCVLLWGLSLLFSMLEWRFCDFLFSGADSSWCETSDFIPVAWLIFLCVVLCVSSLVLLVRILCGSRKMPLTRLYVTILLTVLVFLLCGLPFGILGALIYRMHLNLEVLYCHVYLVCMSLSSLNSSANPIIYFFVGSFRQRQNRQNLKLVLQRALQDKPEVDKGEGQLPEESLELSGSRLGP

For the compound `COc1cc2c3cc1Oc1c(OC)c(OC)cc4c1[C@@H](Cc1ccc(O)c(c1)Oc1ccc(cc1)C[C@@H]3N(C)CC2)N(C)CC4` [berbamine], the IC50 in experiment [1] is 359 ± 9 nM; at MrgprA3, 2900 nM; in experiment [3], 603 ± 47 nM. The “effect on CQ-induced ERK1/2 phosphorylation through MrgprA3” value in experiment [2] is recorded as “significantly reduced”. The “effect on DCA-induced activation of MrgprX4” value on MrgprX4 is recorded as “did not alter”.

Source of the values: article PMC9698483, “Berbamine Reduces Chloroquine-Induced Itch in Mice through Inhibition of MrgprX1” (International Journal of Molecular Sciences, 2022).
